Test results reported in patent US10308615B2, “Heterocyclic compounds as inhibitors of Vanin-1 enzyme” (Pfizer Inc., priority 2015, dated 2019).

Key:
Type in all cases: biochemical
human vanin-1 [1] = target: T1, human vanin-1 (Homo sapiens (Human), UniProt O95497); assay: Human Vanin-1 Enzyme Assay 1; conditions: 25 pM human vanin-1, 50 uM pantetheine 7-amino-4-trifluoromethylcoumarin, 30 min preincubation, 60 min
Protocol: Human Vanin-1 Enzyme Assay 1.
(§1) The in vitro assay measures enzymatic cleavage of the fluorescently-labeled vanin substrate, pantetheine 7-amino-4-trifluoromethylcoumarin, by human vanin-1.
(§2) The vanin-1 protein was prepared in-house from a construct expressing the extracellular domain of human vanin-1 (GenBank ID NM_004666) preceded N-terminally by the honey bee melittin signal peptide, a GSG linker sequence, a His6X tag and a FLAG tag. The secreted, soluble enzyme was purified from the conditioned medium from a CHO cell line stably expressing the resulting protein. Enzyme purification was performed through sequential Ni NTA and size-exclusion chromatography steps.
The test inhibitors were solubilized in DMSO to a stock concentration of 30 mM. On the day of the assay, dose response plates were prepared by diluting the inhibitors in DMSO at compound concentration 200-fold the final in-assay concentration. Intermediate concentrations were prepared by diluting in DMSO in a four-fold series for a total of 11 data points.
To prepare a working solution of human vanin-1, the enzyme was diluted to 33.3 pM in the assay buffer consisting of 50 mM Tris-HCl pH=8.0, 50 mM KCl, 0.005% Brij-35 and […] cysteamine. To begin the assay 100 nL was transferred from the compound plate to the assay plate. Next, 15 μL of the vanin-1 working solution were transferred to the assay plate. The inhibitor and enzyme were incubated at room temperature for 30 minutes. The enzyme reaction was then initiated by the addition of 5 μL of 200 μM pantetheine 7-amino-4-trifluoromethylcoumarin prepared in assay buffer. The final concentrations in the assay were 25 pM human vanin-1 and 50 uM substrate. The final concentration of DMSO was 0.5%. The assay plates were incubated for 60 minutes and before they were read on a Perkin Elmer EnVision Model 2103 using a 405 nm excitation wavelength and a 510 nm emission wavelength for detection.

human vanin-1 [2] = target: T1, human vanin-1; assay: Human Vanin-1 Enzyme Assay 2; conditions: 1 nM human vanin-1, 10 uM substrate, 45 min
Protocol: Human Vanin-1 Enzyme Assay 2.
as §1, §2
(§3) On the day of the assay, dose response plates were prepared by diluting the inhibitors in DMSO at compound concentration 100-fold the final in-assay concentration. Concentration series were prepared by serially diluting in DMSO in a half-log series for a total of 11 data points. Intermediate compound plates containing compound in 10% DMSO were then created by diluting the compounds 10-fold in assay buffer consisting of 50 mM Tris-HCl pH=8.0, 50 mM KCl, 0.005% Brij-35 and 1.5 mM cysteamine. To begin the assay 3 μL were transferred from the intermediate compound plate to the assay plate.
A working solution of human vanin-1 was prepared by diluting the enzyme stock to 1.25 nM in assay buffer. Next, 24 μL of the vanin-1 working solution were transferred to the assay plate. The enzyme reaction was then initiated by the addition of 3 μL of 100 μM pantetheine 7-amino-4-trifluoromethylcoumarin prepared in assay buffer. The final concentrations in the assay were 1 nM human vanin-1 and 10 uM substrate. The final concentration of DMSO was 1%. The assay plates were incubated for 45 minutes and before they were read on a Spectramax M5 using a 405 nm excitation wavelength and a 505 nm emission wavelength for detection.

human vanin-1 [3] = target: T1, human vanin-1; assay: Human Vanin-1 Enzyme Assay 3; conditions: 2 nM human vanin-1, 10 uM substrate, 15 min
Protocol: Human Vanin-1 Enzyme Assay 3.
as §1, §2
as §3, with “two-fold” for “half-log”
A working solution of human vanin-1 was prepared by diluting the enzyme stock to 2.5 nM in assay buffer. Next, 24 μL of the vanin-1 working solution were transferred to the assay plate. The enzyme reaction was then initiated by the addition of 3 μL of 100 μM pantetheine 7-amino-4-trifluoromethylcoumarin prepared in 5 uM acetic acid. The final concentrations in the assay were 2 nM human vanin-1 and 10 uM substrate. The final concentration of DMSO was 1%. The assay plates were incubated at room temperature for 15 minutes and before they were read on a Tecan Safire using a 405 nm excitation wavelength and a 505 nm emission wavelength for detection.

T1 sequence (O95497 22-491): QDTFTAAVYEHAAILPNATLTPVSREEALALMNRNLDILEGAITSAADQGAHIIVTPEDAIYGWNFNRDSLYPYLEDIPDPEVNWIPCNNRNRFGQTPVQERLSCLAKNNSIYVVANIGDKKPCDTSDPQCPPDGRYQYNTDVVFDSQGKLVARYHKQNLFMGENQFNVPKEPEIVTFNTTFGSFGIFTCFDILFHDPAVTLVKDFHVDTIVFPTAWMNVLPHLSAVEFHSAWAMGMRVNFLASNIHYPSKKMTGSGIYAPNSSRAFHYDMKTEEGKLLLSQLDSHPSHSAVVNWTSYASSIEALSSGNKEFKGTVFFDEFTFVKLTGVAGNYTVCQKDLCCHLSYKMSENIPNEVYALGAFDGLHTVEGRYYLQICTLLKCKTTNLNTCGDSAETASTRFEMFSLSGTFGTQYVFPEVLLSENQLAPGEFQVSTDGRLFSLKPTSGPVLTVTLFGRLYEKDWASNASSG

Row | Compound | IC50 (human vanin-1 [1]) [nM] | IC50 (human vanin-1 [2]) [nM] | IC50 (human vanin-1 [3]) [nM]
1 | CC(Nc1ncc(C(=O)c2cccc(C#N)c2)cn1)c1ccc(C(N)=O)cc1 (single isomer, unassigned; (-)) [Example 9, (−)-4-(1-{[5-(3-cyanobenzoyl)pyrimidin-2-yl]amino}ethyl)benzamide] | 10.3 | 41.3 | 
2 | CN1CCC(CNc2ncc(C(=O)c3cccc(C#N)c3)cn2)CC1 [Example 164, 3-[(2-{[(1-methylpiperidin-4-yl)methyl]amino}pyrimidin-5-yl)carbonyl] benzonitrile] | 1810 | 8570 | 
3 | CC(Nc1ncc(C(=O)c2cccc(C#N)c2)cn1)c1cncnc1 (centres unmarked) [Example 133, 3-[(2-{[1-(pyrimidin-5-yl)ethyl]amino}pyrimidin-5-yl)carbonyl] benzonitrile] |  | 15.5 | 
4 | COc1cccc(C(=O)c2cnc(NC(C)c3cncnc3)nc2)c1 (centres unmarked) [Example 142, (3-methoxyphenyl) (2-{[1-(pyrimidin-5-yl)ethyl]amino}pyrimidin-5-yl)methanone] | 17.1 | 34.3 | 
5 | NC(=O)c1cccc(C(=O)c2cnc(NCc3cncnc3)nc2)c1 [Example 136, 3-({2-[(pyrimidin-5-ylmethyl)amino]pyrimidin-5-yl}carbonyl) benzamide] | 187 | 137 | 
6 | Cc1ccc(C(=O)c2cnc(NCc3cncnc3)nc2)cc1C#N [Example 132, 2-methyl-5-({2-[(pyrimidin-5-ylmethyl)amino]pyrimidin-5-yl}carbonyl) benzonitrile] | 126 | 98.2 | 
7 | N#Cc1cc(C(=O)c2cnc(NCc3cncnc3)nc2)ccc1Cl [Example 134, 2-chloro-5-({2-[(pyrimidin-5-ylmethyl)amino]pyrimidin-5-yl}carbonyl) benzonitrile] | 259 | 100 | 
8 | N#Cc1cccc(C(=O)c2cnc(NC3(c4cnccn4)CC3)nc2)c1 [Example 5, 3-[(2-{[1-(pyrazin-2-yl)cyclopropyl]amino}pyrimidin-5-yl)carbonyl]benzonitrile] | 3.4 | 9.8 | 
9 | N#Cc1cccc(C(=O)c2ccc(NCc3cncnc3)nc2)c1 [Example 140, 3-({6-[(pyrimidin-5-ylmethyl)amino]pyridin-3-yl}carbonyl) benzonitrile] | 144 | 64.4 | 
10 | COc1cccc(C(=O)c2cnc(NCc3cncnc3)nc2)c1 [Example 143, (3-methoxyphenyl) {2-[(pyrimidin-5-ylmethyl)amino]pyrimidin-5-yl}methanone] | 81.5 | 110 | 
11 | O=C(c1cnc(NCc2cncnc2)nc1)c1ccc2c(c1)OCCO2 [Example 145, 2,3-dihydro-1,4-benzodioxin-6-yl{2-[(pyrimidin-5-ylmethyl)amino]pyrimidin-5-yl}methanone] | 329 | 486 | 
12 | CC(Nc1ncc(C(=O)c2cccc(C#N)c2)cn1)c1ccc(C(N)=O)cc1 (centres unmarked) [Example 8, 4-(1-{[5-(3-cyanobenzoyl)pyrimidin-2-yl]amino}ethyl)benzamide] |  | 91.4 | 
13 | N#Cc1cccc(C(=O)c2cnc(NCC3CCOCC3)nc2)c1 [Example 163, 3-({2-[(tetrahydro-2H-pyran-4-ylmethyl)amino]pyrimidin-5-yl}carbonyl) benzonitrile] | 2880 | 2230 | 
14 | CS(=O)(=O)c1cccc(C(=O)c2ccc(NCc3cncnc3)nc2)c1 [Example 19, [3-(methylsulfonyl)phenyl]{6-[(pyrimidin-5-ylmethyl)amino]pyridin-3-yl}methanone] | 1440 | 28.8 | 
15 | N#Cc1cccc(C(=O)c2cnc(NCc3cnc(N)nc3)nc2)c1 [Example 4, 3-[(2-{[(2-aminopyrimidin-5-yl)methyl]amino}pyrimidin-5-yl)carbonyl]benzonitrile] | 22.4 | 21 | 
16 | Cn1ncc2cc(C(=O)c3cnc(NCc4cncnc4)nc3)ccc21 [Example 159, (1-methyl-1H-indazol-5-yl){2-[(pyrimidin-5-ylmethyl)amino]pyrimidin-5-yl}methanone] | 2750 | 3080 | 
17 | COc1ccc(C(=O)c2cnc(NC(C)c3ccc(C(N)=O)cc3)nc2)cc1 (centres unmarked) [Example 160, 4-(1-{[5-(4-methoxybenzoyl)pyrimidin-2-yl]amino}ethyl) benzamide] | 3440 | 7150 | 
18 | CS(=O)(=O)c1cccc(C(=O)c2cnc(NCc3cccnn3)nc2)c1 [Example 21, [3-(methylsulfonyl)phenyl]{2-[(pyridazin-3-ylmethyl)amino]pyrimidin-5-yl}methanone] |  | 63 | 
19 | O=C(c1cnc(NCc2cncnc2)nc1)c1ccnc(C(F)(F)F)c1 [Example 141, {2-[(pyrimidin-5-ylmethyl)amino]pyrimidin-5-yl}[2-(trifluoromethyl)pyridin-4-yl]methanone] |  | 280 | 
20 | O=C(c1ccc(NCc2cncnc2)nc1)c1cccc(C(F)(F)F)c1 [Example 139, {6-[(pyrimidin-5-ylmethyl)amino]pyridin-3-yl}[3-(trifluoromethyl)phenyl]methanone] |  | 31.5 | 
21 | O=C(c1cnc(NCc2ccccc2)nc1)c1ccc2c(c1)OCCO2 [Example 97, [2-(benzylamino)pyrimidin-5-yl](2,3-dihydro-1,4-benzodioxin-6-yl)methanone] | 4850 |  | 873
22 | O=C(O)c1ccc(CNc2ncc(C(=O)c3ccc(F)c(C(F)(F)F)c3)cn2)cc1 [Example 89, 4-[({5-[4-fluoro-3-(trifluoromethyl)benzoyl]pyrimidin-2-yl}amino)methyl] benzoic acid] | 1000 |  | 615
23 | CC(Nc1ncc(C(=O)c2cccc(C#N)c2)cn1)c1cccnc1 (centres unmarked) [Example 7, 3-[(2-{[1-(pyridin-3-yl)ethyl]amino}pyrimidin-5-yl)carbonyl]benzonitrile] |  | 3.9 | 
24 | O=C(c1cnc(NCc2ccccc2)nc1)c1ccc(F)c(C(F)(F)F)c1 [Example 83, [2-(benzylamino)pyrimidin-5-yl][4-fluoro-3-(trifluoromethyl)phenyl]methanone] | 1050 |  | 84.4
25 | O=C(c1cnc(NCc2ccncc2)nc1)c1ccc(F)c(C(F)(F)F)c1 [Example 82, [4-fluoro-3-(trifluoromethyl)phenyl]{2-[(pyridin-4-ylmethyl)amino]pyrimidin-5-yl}methanone] | 111 |  | 55.5
26 | O=C(c1cnc(OCc2ccccc2)nc1)c1cccc(C(F)(F)F)c1 [Example 155, [2-(benzyloxy)pyrimidin-5-yl][3-(trifluoromethyl)phenyl]methanone] | > 20000 |  | > 1110
27 | O=C(c1cnc(OCc2ccc(F)cc2F)nc1)c1cccc(C(F)(F)F)c1 [Example 156, {2-[(2,4-difluorobenzyl)oxy]pyrimidin-5-yl}[3-(trifluoromethyl)phenyl]methanone] | > 20000 |  | > 1130
28 | NC(=O)c1ccc(CNc2ncc(C(=O)c3ccccc3)cn2)cn1 [Example 107, 5-{[(5-benzoylpyrimidin-2-yl)amino]methyl} pyridine-2-carboxamide] | 906 |  | 751
